Reference: ChEMBL document CHEMBL1201862, “PubChem BioAssay data set” (2004)
Activity calls are given as the source filed them.

Assays:
[1] = viability of uninfected HEp-2 cells – cell-based, HTS, cytotoxicity control for RSV inhibitor project, dose response (AID 2410); type: functional; details: human respiratory syncytial virus
SUMO-activating enzyme [2] = molecular target: T1, SUMO-activating enzyme (Homo sapiens, UniProt Q9UBT2); assay: blockers of SAE1/SAE2–UBC9 SUMO transfer – biochemical, HTRF, uHTS, primary screen (AID 2006); type: protein-complex assay
T1 sequence (Q9UBE0 whole entry): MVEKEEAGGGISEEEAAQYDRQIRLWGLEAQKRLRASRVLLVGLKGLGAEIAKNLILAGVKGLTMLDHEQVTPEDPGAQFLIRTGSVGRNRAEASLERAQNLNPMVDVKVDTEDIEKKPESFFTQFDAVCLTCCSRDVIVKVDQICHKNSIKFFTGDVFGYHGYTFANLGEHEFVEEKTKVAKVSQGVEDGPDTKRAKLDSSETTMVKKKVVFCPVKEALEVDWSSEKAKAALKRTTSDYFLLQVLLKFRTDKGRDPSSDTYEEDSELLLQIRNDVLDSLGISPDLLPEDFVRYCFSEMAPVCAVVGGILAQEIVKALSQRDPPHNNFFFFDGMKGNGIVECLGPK
T1 sequence (Q9UBT2 whole entry): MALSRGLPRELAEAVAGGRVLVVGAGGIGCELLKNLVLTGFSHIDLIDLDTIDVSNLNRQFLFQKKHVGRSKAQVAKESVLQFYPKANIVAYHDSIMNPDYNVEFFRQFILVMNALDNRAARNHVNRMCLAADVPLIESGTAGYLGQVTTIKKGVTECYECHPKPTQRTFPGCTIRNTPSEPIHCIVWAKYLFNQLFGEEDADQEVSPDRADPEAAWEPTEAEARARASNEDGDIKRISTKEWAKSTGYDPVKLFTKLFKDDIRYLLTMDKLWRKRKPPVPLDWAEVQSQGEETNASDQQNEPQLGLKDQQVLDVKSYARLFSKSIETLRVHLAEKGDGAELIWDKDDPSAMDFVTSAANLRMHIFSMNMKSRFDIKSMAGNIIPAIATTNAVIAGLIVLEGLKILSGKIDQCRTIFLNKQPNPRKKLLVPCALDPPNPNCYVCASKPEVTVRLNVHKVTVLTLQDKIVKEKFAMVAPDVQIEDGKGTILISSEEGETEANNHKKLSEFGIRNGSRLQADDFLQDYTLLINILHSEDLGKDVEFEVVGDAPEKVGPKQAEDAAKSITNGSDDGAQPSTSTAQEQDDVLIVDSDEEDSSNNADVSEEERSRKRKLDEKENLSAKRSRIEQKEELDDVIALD

SUMO-activating enzyme [3] = molecular target: T1, SUMO-activating enzyme; assay: blockers of UBC9-mediated SUMO conjugation – biochemical, AlphaScreen, SUMOylation inhibitor project, confirmation (AID 2018); type: functional
[4] = alpha-synuclein stem-loop luciferase translation blockers – H4 neuroglioma cells, luminescence, confirmation (AID 1988); type: functional, cell-based
[5] = NIH3T3 cell viability loss – ATP luminescence, mouse fibroblasts, counter-screen, dose response (AID 2010); type: functional, cell-based;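 further: cells exposed to compound for about 90 hours before reading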
[6] = Luminescence Cell-Based Dose Response HTS to Identify Inhibitors of 5'UTR Stem-Loop Driven Prion Protein mRNA Translation in H4 Neuroglioblastoma Cells. [Related pubchem assays: 1827 (Project Summary), 1813 (Primary HTS)]; type: functional
[7] = system: Streptococcus sp. 'group A'; assay: Streptococcus pyogenes SK(-)GAS viability under kanamycin – luminescence, BacTiterGlo, confirmation, counter-screen for streptokinase expression inhibitor project, dose response (AID 1900); type: functional, organism-based
[8] = Trypanosoma cruzi growth suppression in host cells – NIH3T3 host cells, beta-gal luminescence, confirmation (AID 2044); type: functional, cell-based;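 further: intracellular parasites grown in NIH/3T3 mouse fibroblasts as host cells; luminescent beta-galactosidase reporter signal from transgenic T. cruzi replicating inside host cells; inhibitors lower the luminescence signal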
Beta-galactosidase = Beta-galactosidase (Escherichia coli, UniProt Q8VNN2); assay: PubChem AID 485352; type: functional
Beta-galactosidase, sequence (Q8VNN2 whole entry): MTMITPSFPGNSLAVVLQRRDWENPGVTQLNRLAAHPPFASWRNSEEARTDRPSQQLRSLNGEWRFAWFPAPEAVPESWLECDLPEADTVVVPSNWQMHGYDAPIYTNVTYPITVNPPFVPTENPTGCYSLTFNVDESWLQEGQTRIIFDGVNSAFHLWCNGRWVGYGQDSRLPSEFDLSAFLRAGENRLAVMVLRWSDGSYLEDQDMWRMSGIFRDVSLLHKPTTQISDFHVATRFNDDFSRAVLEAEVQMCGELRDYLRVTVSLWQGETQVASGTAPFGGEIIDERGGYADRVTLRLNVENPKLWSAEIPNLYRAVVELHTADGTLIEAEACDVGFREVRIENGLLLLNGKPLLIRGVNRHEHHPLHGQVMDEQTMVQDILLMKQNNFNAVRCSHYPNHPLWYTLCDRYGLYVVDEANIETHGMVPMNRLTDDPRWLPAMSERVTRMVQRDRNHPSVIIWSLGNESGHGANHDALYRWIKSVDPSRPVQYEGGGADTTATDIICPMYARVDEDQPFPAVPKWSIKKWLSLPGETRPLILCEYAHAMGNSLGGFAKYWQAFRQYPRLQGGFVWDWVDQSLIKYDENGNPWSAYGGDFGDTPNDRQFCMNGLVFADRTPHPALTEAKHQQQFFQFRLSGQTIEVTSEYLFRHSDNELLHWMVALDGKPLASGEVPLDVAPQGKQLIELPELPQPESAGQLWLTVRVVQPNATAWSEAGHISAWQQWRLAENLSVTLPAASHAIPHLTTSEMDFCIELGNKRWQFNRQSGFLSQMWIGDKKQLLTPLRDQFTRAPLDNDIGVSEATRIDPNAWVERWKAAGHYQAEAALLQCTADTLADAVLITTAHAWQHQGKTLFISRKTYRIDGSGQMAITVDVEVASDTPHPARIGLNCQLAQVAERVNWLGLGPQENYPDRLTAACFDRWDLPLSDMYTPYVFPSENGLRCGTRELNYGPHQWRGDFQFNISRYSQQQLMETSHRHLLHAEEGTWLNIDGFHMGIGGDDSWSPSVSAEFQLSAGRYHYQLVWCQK

Streptococcus = assay: GAS UMAA2166 growth inhibition – luminescence, BacTiterGlo, counter-screen for streptokinase expression inhibitor project, dose response (AID 1915); type: functional, organism-based;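 further: potency for reduction of bacterial viability or growth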
[9] = molecular target: T2, Type-1 angiotensin II receptor (Homo sapiens, UniProt P30556); assay: antagonism of angiotensin II type 1 receptor – cell-based, uHTS hits, selectivity assay for APJ receptor antagonist project, dose response (AID 463214); type: functional;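 further: antagonist potency against angiotensin II stimulated AT1 response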
T2 sequence (P30556 whole entry): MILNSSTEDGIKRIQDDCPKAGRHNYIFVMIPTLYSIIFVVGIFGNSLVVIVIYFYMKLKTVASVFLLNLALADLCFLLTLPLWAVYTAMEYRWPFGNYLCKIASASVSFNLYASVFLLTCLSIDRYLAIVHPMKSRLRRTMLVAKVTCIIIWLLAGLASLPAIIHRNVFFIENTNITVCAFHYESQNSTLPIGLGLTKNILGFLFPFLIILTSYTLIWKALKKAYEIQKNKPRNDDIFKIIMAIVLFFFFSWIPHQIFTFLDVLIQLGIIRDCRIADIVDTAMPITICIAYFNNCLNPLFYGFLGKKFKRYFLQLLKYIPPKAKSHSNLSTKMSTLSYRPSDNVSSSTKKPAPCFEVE

[10] = luciferase reporter signal suppression in cells – H4 neuroglioma cells, luminescence, dose response (AID 1990); type: functional, cell-based
Coagulation factor XII = molecular target: T3, Coagulation factor XII (Homo sapiens, UniProt P00748); type: functional;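 further: activated factor XIIa alpha cleaving a fluorogenic AMC peptide substrate; inhibitor potency from loss of enzyme activity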
T3 sequence (P00748 whole entry): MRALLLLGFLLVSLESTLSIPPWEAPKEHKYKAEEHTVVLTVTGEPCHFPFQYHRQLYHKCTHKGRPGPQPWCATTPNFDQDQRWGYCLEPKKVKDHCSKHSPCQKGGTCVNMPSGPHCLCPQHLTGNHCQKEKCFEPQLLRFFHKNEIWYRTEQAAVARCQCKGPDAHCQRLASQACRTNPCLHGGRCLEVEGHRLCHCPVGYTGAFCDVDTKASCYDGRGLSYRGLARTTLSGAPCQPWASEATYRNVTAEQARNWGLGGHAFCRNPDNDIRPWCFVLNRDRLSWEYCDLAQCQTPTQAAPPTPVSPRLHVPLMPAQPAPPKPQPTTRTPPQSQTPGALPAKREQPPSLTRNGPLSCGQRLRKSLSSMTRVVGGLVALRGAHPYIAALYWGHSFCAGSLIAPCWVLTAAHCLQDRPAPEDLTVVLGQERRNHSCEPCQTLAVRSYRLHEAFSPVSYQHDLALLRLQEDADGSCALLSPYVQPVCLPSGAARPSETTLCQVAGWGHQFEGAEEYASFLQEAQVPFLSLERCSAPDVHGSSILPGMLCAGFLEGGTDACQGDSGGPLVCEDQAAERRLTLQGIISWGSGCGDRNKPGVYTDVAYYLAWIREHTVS

Fatty acid synthase [11] = molecular target: T4, Fatty acid synthase (Homo sapiens, UniProt P49327); assay: inhibition of human FAS-TE enzyme activity – biochemical, kinetic fluorescence intensity, dose response (AID 624326); type: functional;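 further: rate of fluorescence rise from hydrolysis of a fluorogenic O-methyl fluorescein ester substrate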
[12] = molecular target: T5, Microphthalmia-associated transcription factor (Homo sapiens, UniProt O75030); assay: reducers of TRPM1 reporter luminescence, concentration series – cell-based, SK-MEL-5, cherry-picked, set 3, MITF inhibitor project, dose response (AID 493073); type: functional;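 further: SK-MEL-5 melanoma cells with luciferase driven by the MITF target TRPM1 promoter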
T5 sequence (O75030 whole entry): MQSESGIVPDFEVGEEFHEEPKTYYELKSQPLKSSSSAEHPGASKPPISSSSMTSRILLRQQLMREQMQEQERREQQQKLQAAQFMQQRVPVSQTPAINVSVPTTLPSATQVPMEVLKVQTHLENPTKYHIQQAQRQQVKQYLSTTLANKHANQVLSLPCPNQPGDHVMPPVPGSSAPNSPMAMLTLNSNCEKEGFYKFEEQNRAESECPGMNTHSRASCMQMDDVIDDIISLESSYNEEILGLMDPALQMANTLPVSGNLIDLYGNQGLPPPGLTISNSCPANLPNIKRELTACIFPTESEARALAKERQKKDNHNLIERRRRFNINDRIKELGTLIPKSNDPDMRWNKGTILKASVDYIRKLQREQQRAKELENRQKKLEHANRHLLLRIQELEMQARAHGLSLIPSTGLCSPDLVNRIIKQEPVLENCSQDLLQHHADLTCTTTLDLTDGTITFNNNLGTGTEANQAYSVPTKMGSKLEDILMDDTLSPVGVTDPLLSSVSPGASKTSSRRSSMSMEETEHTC

Fatty acid synthase [13] = molecular target: T4, Fatty acid synthase; assay: inhibition of human FAS-TE enzyme activity – biochemical, endpoint fluorescence intensity, uHTS hits, dose response (AID 624327); type: functional;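 further: fluorescence from hydrolysis of an O-methyl fluorescein acyl ester substrate by the enzyme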
[14] = molecular target: T6, Calpain-2 catalytic subunit (Sus scrofa, UniProt P43367); assay: m-calpain protease blockers, concentration series – biochemical, fluorogenic peptide substrate, dose response (AID 1420); type: functional
T6 sequence (P43367 whole entry): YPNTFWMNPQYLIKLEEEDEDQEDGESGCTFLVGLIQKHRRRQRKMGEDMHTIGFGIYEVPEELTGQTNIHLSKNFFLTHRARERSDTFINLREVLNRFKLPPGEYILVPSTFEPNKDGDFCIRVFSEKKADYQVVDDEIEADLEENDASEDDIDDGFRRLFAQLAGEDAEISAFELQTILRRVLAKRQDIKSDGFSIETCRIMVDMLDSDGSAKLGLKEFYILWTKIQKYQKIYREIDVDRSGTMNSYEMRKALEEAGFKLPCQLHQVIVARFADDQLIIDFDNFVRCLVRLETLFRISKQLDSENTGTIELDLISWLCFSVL

Genome polyprotein = Genome polyprotein (dengue virus type 2, UniProt P29990); assay: flavivirus cap methylation enzyme inhibition – biochemical, confirmation dose response, primary screen (AID 588689); type: functional
Genome polyprotein, sequence (P29990 2492-3391 limits assumed): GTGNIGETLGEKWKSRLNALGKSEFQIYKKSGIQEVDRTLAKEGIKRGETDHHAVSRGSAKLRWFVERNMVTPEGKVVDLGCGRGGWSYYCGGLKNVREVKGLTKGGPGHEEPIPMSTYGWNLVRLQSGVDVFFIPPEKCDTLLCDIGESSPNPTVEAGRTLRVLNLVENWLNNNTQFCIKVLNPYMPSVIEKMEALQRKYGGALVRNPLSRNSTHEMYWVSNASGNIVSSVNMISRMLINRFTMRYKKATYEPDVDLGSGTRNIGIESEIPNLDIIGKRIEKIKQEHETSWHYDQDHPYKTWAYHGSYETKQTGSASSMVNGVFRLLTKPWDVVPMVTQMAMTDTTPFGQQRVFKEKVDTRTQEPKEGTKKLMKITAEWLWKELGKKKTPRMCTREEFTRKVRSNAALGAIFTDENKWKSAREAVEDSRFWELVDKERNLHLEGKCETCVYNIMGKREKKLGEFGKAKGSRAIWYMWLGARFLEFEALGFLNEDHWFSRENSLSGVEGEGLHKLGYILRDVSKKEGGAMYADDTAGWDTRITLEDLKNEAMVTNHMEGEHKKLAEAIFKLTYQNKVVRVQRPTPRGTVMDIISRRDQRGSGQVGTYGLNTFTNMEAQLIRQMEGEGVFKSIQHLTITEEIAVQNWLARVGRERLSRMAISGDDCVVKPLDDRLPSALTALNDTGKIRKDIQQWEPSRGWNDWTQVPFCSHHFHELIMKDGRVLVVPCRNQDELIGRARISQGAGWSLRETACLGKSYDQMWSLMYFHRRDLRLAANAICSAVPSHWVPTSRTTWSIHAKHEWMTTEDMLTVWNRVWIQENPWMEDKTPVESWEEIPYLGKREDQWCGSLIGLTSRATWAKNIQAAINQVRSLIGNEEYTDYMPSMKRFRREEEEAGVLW

Aminopeptidase N = molecular target: T7, Aminopeptidase N (Plasmodium falciparum FcB1/Columbia, UniProt O96935); assay: malaria alanyl aminopeptidase activity blockers – biochemical, fluorogenic H-Leu-NHMec substrate, 1536-well (AID 1445); parameters: species or system Plasmodium falciparum 3D7, 3D7
T7 sequence (O96935 whole entry): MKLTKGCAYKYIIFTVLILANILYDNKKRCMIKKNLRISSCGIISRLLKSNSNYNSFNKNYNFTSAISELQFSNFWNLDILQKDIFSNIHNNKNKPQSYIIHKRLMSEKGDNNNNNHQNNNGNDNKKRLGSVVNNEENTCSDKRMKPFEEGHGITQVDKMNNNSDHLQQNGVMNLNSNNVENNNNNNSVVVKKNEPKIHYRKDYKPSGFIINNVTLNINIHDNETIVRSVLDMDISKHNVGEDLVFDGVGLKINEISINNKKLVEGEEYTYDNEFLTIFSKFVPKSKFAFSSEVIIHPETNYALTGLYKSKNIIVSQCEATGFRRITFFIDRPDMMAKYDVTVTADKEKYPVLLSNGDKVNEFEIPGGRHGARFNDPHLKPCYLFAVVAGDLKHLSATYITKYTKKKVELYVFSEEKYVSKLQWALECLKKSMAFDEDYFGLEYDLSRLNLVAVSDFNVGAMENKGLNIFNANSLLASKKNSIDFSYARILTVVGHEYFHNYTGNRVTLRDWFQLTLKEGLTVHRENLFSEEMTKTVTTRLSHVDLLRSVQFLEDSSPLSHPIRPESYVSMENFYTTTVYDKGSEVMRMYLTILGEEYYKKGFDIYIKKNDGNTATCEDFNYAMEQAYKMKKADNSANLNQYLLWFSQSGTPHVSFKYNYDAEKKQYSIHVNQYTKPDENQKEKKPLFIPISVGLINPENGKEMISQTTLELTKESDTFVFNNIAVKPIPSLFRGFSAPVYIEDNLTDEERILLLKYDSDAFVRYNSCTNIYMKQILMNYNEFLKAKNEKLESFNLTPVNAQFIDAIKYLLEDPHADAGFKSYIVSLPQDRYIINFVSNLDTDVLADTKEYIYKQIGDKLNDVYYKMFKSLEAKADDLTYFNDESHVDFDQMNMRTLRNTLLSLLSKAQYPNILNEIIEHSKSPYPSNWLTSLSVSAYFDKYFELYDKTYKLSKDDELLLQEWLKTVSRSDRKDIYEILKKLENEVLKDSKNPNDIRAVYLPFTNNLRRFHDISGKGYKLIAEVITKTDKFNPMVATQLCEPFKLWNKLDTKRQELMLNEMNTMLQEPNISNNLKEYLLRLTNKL

cells [15] = type: functional, cell-based
cells [16] = type: functional, cell-based; remark: listed apart in the source
INS1 = assay: INS-1E survival protection against cytokine death – cell-based, luminescence, retest, dose response (AID 449756); type: functional; details: Rattus norvegicus;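 further: cell death triggered by IL-1 beta plus TNF-alpha plus IFN-gamma mixture; protective hits raise ATP signal compared with cytokine alone wells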
Vero = assay: cells; type: functional; details: Chlorocebus sabaeus
[17] = molecular target: FAD-linked sulfhydryl oxidase ALR (Homo sapiens, UniProt P55789); assay: ALR-catalysed DTT oxidation blockers – biochemical, H2O2 detection, luminescence, cherry-pick, dose response (AID 493248)
FAD-linked sulfhydryl oxidase ALR, sequence (P55789 whole entry, the tested form may be a part): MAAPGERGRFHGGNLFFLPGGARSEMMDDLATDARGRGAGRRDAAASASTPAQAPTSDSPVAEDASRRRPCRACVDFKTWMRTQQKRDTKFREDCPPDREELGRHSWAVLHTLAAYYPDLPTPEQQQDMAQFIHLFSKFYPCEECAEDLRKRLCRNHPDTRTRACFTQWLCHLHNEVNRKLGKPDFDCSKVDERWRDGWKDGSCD

[18] = molecular target: T8, Carboxy-terminal domain RNA polymerase II polypeptide A small phosphatase 1 (Homo sapiens, UniProt Q9GZU7); assay: CTDSP1 inhibitors, concentration-response, biochemical, absorbance readout, ultra-high-throughput screen actives (AID 540297); type: functional
T8 sequence (Q9GZU7 whole entry): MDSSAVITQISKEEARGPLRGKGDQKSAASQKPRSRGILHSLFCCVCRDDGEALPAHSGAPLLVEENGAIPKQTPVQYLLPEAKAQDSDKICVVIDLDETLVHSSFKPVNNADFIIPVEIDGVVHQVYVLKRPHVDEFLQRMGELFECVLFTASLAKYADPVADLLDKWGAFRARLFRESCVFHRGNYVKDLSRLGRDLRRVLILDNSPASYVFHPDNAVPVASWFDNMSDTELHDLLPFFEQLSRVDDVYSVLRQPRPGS

[19] = molecular target: DNA dC->dU-editing enzyme APOBEC-3A (Homo sapiens, UniProt P31941); assay: Dose Response confirmation of small molecule APOBEC3A DNA Deaminase Inhibitors via a fluorescence-based single-stranded DNA deaminase assay. [Related pubchem assays (depositor defined):AID493011, AID493024]; type: functional
DNA dC->dU-editing enzyme APOBEC-3A, sequence (P31941 whole entry): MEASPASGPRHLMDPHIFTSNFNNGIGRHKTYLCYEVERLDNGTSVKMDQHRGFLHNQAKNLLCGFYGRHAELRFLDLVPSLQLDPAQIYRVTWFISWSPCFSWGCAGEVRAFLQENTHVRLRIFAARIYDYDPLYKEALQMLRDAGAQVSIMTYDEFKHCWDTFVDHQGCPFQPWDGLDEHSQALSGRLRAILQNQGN

[20] = molecular target: DNA dC->dU-editing enzyme APOBEC-3G (Homo sapiens, UniProt Q9HC16); type: functional;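 further: Dose-response counterscreen measuring inhibition of APOBEC3G DNA deaminase activity, run while confirming APOBEC3A inhibitors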
DNA dC->dU-editing enzyme APOBEC-3G, sequence (Q9HC16 whole entry): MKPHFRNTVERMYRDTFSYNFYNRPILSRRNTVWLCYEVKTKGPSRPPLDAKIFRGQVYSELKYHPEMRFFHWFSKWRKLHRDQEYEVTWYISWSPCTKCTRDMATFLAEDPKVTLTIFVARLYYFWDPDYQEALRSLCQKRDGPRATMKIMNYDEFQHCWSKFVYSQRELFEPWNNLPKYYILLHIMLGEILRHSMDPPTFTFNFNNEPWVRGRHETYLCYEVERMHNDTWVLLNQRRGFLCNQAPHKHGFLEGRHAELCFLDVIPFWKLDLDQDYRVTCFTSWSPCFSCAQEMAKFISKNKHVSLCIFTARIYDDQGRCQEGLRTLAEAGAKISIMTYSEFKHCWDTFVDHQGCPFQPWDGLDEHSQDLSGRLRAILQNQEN

O=C1NC(=O)N(Cc2ccco2)C(=O)/C1=C\c1cccn1CCOc1ccc(Cl)cc1
CC50 [1]: 24.2 µM (active) | IC50 (SUMO-activating enzyme [2]): 35.7 µM (active) | IC50 (SUMO-activating enzyme [3]): 5.71 µM (active)

CC(C)(C)c1cc(Cl)c(O)c(NC(=S)NC(=O)c2cccnc2)c1
EC50 [4]: > 120 µM (not active) | EC50 [5]: 6.97 µM (active) | EC50 [6]: 15 µM (active) | EC50 [7]: 0.448 µM (active) | EC50 [8]: 2.56 µM (active) | EC50 (Beta-galactosidase): > 40 µM (inactive) | EC50 (Streptococcus): 6.42 µM (active) | IC50 [9]: 22.2 µM (not active) | EC50 [10]: 16.5 µM (active)

CC(C)c1ccc(O)c(NC(=S)NC(=O)c2cccnc2)c1
IC50 (Coagulation factor XII): > 50 µM (inactive) | EC50 (Beta-galactosidase): > 40 µM (inactive) | IC50 [9]: 23.2 µM (not active)

CCOc1cc(/C=C(/C#N)c2ccc(Cl)cc2)cc(Cl)c1OCC(=O)O
IC50 (Fatty acid synthase [11]): 10.4 µM (active) | AC50 [12]: 5.61 µM (active) | IC50 (Fatty acid synthase [13]): 6.78 µM (active) | IC50 [14]: 3.06 µM (not active) | IC50 (Genome polyprotein): 34.5 µM (active)

COc1ccc(C(=O)NC(=S)Nc2nnn(C)n2)cc1
EC50 (Beta-galactosidase): > 40 µM (inactive) | IC50 [9]: > 40 µM (not active)

COc1ccccc1/C=C1\SC(=S)N(C(C(=O)O)c2ccccc2)C1=O (stereo not given)
IC50 (Aminopeptidase N): 26 µM (active) | IC50 (Genome polyprotein): 39.1 µM (active)

O=C(N/N=C/c1cc(Br)cc(Br)c1O)c1ccncc1
EC50 (cells [15]): > 350 µM (not active) | EC50 [7]: 0.807 µM (active) | EC50 (cells [16]): 24.8 µM (active) | EC50 (Streptococcus): 2.5 µM (active) | AC50 (INS1): 2.64 µM (active) | IC50 (SUMO-activating enzyme [2]): 8.52 µM (active) | IC50 (SUMO-activating enzyme [3]): 5.03 µM (active)

OCCN1C[C@H](O)[C@@H](O)[C@H](O)[C@H]1CO [MIGLITOL]
EC50 (Beta-galactosidase): > 40 µM (inactive) | IC50 [9]: > 40 µM (not active)

C=C1C(=O)OC2CC3(C)OC3CCC(C)=CC(OC(C)=O)C12 (stereo not given)
CC50 (Vero): 23.8 µM (active)

CC(C)CSC1=NSC2=NC(=O)/C(=C\c3ccccc3)C(=N)N12
IC50 (Genome polyprotein): 51.8 µM (active)

O=C(O)CN1C(=O)/C(=C\c2cccc(OCc3ccccc3)c2)SC1=S
AC50 [17]: 4.52 µM (active) | IC50 (Genome polyprotein): 42.2 µM (active)

CC[N+]1(CC)CC2CCC(C)(C1)C2(C)C (stereo not given)
IC50 [18]: 12.1 µM (active) | IC50 [19]: 2.28 µM (active) | IC50 [20]: 3.3 µM (active)
